Source: patent publication US7351722B2, “Use of Mangafodipir for treating oxidative stress effects” (Universite Rene Descartes (Paris V), priority 2001, dated 2008)

Columns and labels:
[1] = test system: acetaminophen-induced acute hepatic failure; experiment: Animal survival in acetaminophen-induced acute hepatic failure, comparison of Mangafodipir, MnTBAP and CuDIPS (Example 7); type: in vivo, mice; details: for number of surviving animals: 10 mg/kg bolus 2 h before 1000 mg/kg APAP, n = 12
Procedure: The Mangafodipir, the MnTBAP or the CuDIPS are administered in the form of a bolus, in the preventive capacity, 2 hours before the acetaminophen.
Animal survival is monitored for 24 hours after the administration of acetaminophen.

[2] = test system: acetaminophen-induced acute hepatic failure; details: 500 mg/kg APAP, ASAT after 12 hours
Procedure: In a second series of experiments, one group of mice was given a dose of 500 mg/kg of acetaminophen; a second group was given the same dose of acetaminophen, and a dose of 10 mg/kg of Mangafodipir administered 2 h before the acetaminophen; a third group of animals was given the same dose of acetaminophen, and a dose of 10 mg/kg of MnTBAP, and a fourth group of animals was given the same dose of acetaminophen, and a dose of 10 mg/kg of CuDIPS. The ASAT serum transaminases are assayed 12 hours after the administration of acetaminophen.

[3] = spectrophotometry at 340 nm for 5 minutes
Procedure: The glutathione reductase activity was assayed using the kit: “Glutathione reductase assay kit” marketed by the company Calbiochem. The reaction mixture is analyzed by spectrophotometry at 340 nm for 5 minutes.

[4] = Procedure: The SOD activity of a chemical compound can be determined by the NBT (nitro blue tetrazolium) reduction method according to the technique described by Beauchamp and Fridovich [Anal. Biochem., 44(1), 276-87, (1971)].
The test is carried out at 25° C. in a final volume of buffer of 0.8 ml (50 mM TRIS/HCl, pH 7.6), containing 22 μM of xanthine, 500 U/ml of catalase and 0.2 U/ml of xanthine oxidase. The reduction of NBT, in the presence of 1.5 μg of Mangafodipir or, as a control, in the absence of Mangafodipir, is measured every 30 seconds for 5 minutes. One SOD unit (U SOD) is defined by the amount of enzyme capable of inhibiting the NBT reduction rate by 50%.

[5] = test system: Hep 3B human hepatic cell line; details: 62.5, 125, 250 μg/ml, 1 h before H2O2, MTT after 12 h
Procedure: The Hep 3B human hepatic cell line was also used for these experiments.
(§1) The cells were seeded in a 96-well culture plate, in a proportion of 5×10^4 cells per well, in a final volume of 50 μl.
One hundred μl of Mangafodipir solution at various concentrations (62.5, 125, 250 μg/ml) were deposited into each well (three wells per concentration tested). After incubation for one hour, 50 μl of a solution of H2O2 at 4 mM were deposited into each well.

[6] = test system: Hep 3B human hepatic cell line; details: 62.5, 125, 250 μg/ml, 1 h before X/XO, MTT after 12 h
Procedure: as §1
One hundred μl of Mangafodipir solution at various concentrations (62.5, 125, 250 μg/ml) were deposited into each well (three wells per concentration tested).

[7] = 75.7 μg of Mangafodipir, 10 mM H2O2, pH 7.4
Procedure: The catalase activity was assayed according to the method described by AEBI [Methods Enzymol., 105, 121-126, (1984)]. The decrease in optical density (OD) at 240 nm of a solution of 10 mM H2O2 in phosphate buffer (50 mM of Na2HPO4/KH2PO4, 0.1 mM EDTA, pH 7.4) was measured in the presence of 75.7 μg of Mangafodipir or, by way of reference, in the presence of 1 unit of bovine catalase.

[8] = test system: acetaminophen-induced acute hepatic failure; details: mice given acetaminophen
Excerpt: In each of the groups, the livers of several animals were removed in order to perform a histological study.

Substance: Manganese dipyridoxyl phosphate [Mangafodipir]
- number of surviving animals ([1]; time 0 h): 12
- number of surviving animals ([1]; time 6 h): 12
- number of surviving animals ([1]; time 8 h): 12
- number of surviving animals ([1]; time 9 h): 12
- number of surviving animals ([1]; time 10 h): 11
- number of surviving animals ([1]; time 11 h): 11
- number of surviving animals ([1]; time 12 h): 11
- number of surviving animals ([1]; time 13 h): 10
- number of surviving animals ([1]; time 14 h): 10
- number of surviving animals ([1]; time 15 h): 10
- number of surviving animals ([1]; time 16 h): 9
- number of surviving animals ([1]; time 17 h): 9
- number of surviving animals ([1]; time 18 h): 9
- number of surviving animals ([1]; time 20 h): 9
- number of surviving animals ([1]; time 22 h): 8
- number of surviving animals ([1]; time 24 h): 8
- effect on survival rate ([1]; 10 mg/kg preventively, 1000 mg/kg APAP, 24 h): increases the survival rate in a manner at least equal to the MnTBAP
- transaminase activities, APAP500 alone relative to Mangafodipir pretreatment ([2]; 10 mg/kg 2 h before): 10 times
- effect on transaminase activities ([2]; 10 mg/kg): decreases the transaminase activities
- glutathione reductase activity [3]: 19.9±1.75 mU glutathione reductase per milligram of Mangafodipir
- rate of reduction of NBT ([4]; 1.5 μg of Mangafodipir in reaction mixture, control 0.0302/minute): 0.01556 min⁻¹
- SOD activity ([4]; 1 U SOD inhibits NBT reduction rate by 50%): 680 U SOD per milligram of Mangafodipir
- mortality of hepatic cells under hydrogen peroxide-mediated oxidative stress [5]: prevents the mortality of hepatic cells
- mortality of hepatic cells under superoxide anion-mediated oxidative stress [6]: prevents the mortality of hepatic cells
- catalase activity [7]: 2 U catalase per milligram of Mangafodipir
- apoptotic lesions in liver, treated versus not treated [8]: considerably fewer apoptotic lesions
